According to patent US20230287510A1, “COMPOSITIONS, PANELS, AND METHODS FOR CHARACTERIZING CHRONIC LYMPHOCYTIC LEUKEMIA” (The Broad Institute, Inc., priority 2020, published 2023):
*1 amine or outer side, *2 acyl side, *3 side chain or, on linkers, in order; H or OH if unused. Where a SMILES comes first, the peptide text is derived from it. Bridges are numbered along the chain shown (N, C = ends). Roman numbers before positions name the chains, in order. [ ]: non-standard residue; d: D form. Actinocin(9to1) = Cc1c2oc3c(C)ccc(C(=O)[*:1])c3nc-2c(C(=O)[*:2])c(N)c1=O; NMeV = CN[C@H](C(=O)O)C(C)C; Sar = CNCC(=O)O

Tested on: chronic lymphocytic leukemia (CLL) samples classified by expression subtype (Ec-i, EC-m1, EC-m2, EC-m3, EC-m4, EC-o, EC-u1, EC-u2)
Test: Ex-vivo drug sensitivity (percent viability) of CLL samples compared between expression subtypes (ECs); on Mean viability in the EC: test concentration or dose not given here; on Mean viability in the other ECs: test concentration or dose not given here
Format: cell-based
Description: An analysis was completed to determine whether the expression clusters (ECs) can be used to predict the resistance and sensitivity of different chronic lymphocytic leukemias to various drugs. […] The expression subtypes were then used with the drug sensitivity data to compare the percent […] of samples in each expression cluster to the percent viability of samples in all other expression clusters.

Row | SMILES | Mean viability in the other ECs (all ECs other than EC-m3) | Mean viability in the other ECs (all ECs other than EC-m4) | Mean viability in the other ECs (all ECs other than EC-u1) | Drug response associated with the EC (expression cluster EC-m3) | Mean viability in the EC (expression cluster EC-m3) | Drug response associated with the EC (expression cluster EC-m4) | Mean viability in the EC (expression cluster EC-m4) | Drug response associated with the EC (expression cluster EC-u1) | Mean viability in the EC (expression cluster EC-u1) | Drug response associated with the EC (expression cluster EC-u2) | also measured
1 | CC(C)c1cc(C(=O)N2Cc3ccc(CN4CCN(C)CC4)cc3C2)c(O)cc1O [AT13387] | 0.72 | 0.70 | 0.75 | Resistant | 0.81 | Resistant | 0.81 | Sensitive | 0.68 | Sensitive | Mean viability in the other ECs (all ECs other than EC-m1): 0.72; Mean viability in the other ECs (all ECs other than EC-u2): 0.74; Drug response associated with the EC (expression cluster EC-m1): Resistant; Mean viability in the EC (expression cluster EC-m1): 0.82; Mean viability in the EC (expression cluster EC-u2): 0.50
2 | NC(=O)Nc1cc(-c2cccc(F)c2)sc1C(=O)N[C@H]1CCCNC1 [AZD7762] | 0.82 | 0.80 | 0.88 | Resistant | 0.95 | Resistant | 0.98 | Sensitive | 0.74 | Sensitive | Mean viability in the other ECs (all ECs other than EC-u2): 0.85; Mean viability in the EC (expression cluster EC-u2): 0.51
3 | CC(C)(C)c1ccc(S(=O)(=O)/C=C/C#N)cc1 [BAY 11-7085] |  |  |  |  |  |  |  | Sensitive |  |  | Drug response associated with the EC (expression cluster EC-i): Resistant
4 | O=C(Nc1cccc(Nc2ncc(Br)c(NCCc3cnc[nH]3)n2)c1)N1CCCC1 [BX912] |  |  | 1.07 |  |  |  |  | Sensitive | 1.05 |  | 
5 | COc1cc2nc(-c3cc(F)ccc3O)nc(N[C@@H]3CNC[C@H]3C(C)(C)O)c2cc1OC [CCT241533] | 1.06 |  |  | Resistant | 1.09 |  |  |  |  |  | Mean viability in the other ECs (all ECs other than EC-m1): 1.06; Drug response associated with the EC (expression cluster EC-m1): Resistant; Mean viability in the EC (expression cluster EC-m1): 1.11
6 | C[C@@H]1CN(CC(=O)Nc2ccc3c(c2)Cc2cccc(-c4cc(=O)cc(N5CCOCC5)o4)c2S3)C[C@H](C)O1 [KU-60019] | 0.97 |  |  | Resistant | 1.00 |  |  |  |  | Sensitive | Mean viability in the other ECs (all ECs other than EC-u2): 0.97; Mean viability in the EC (expression cluster EC-u2): 0.90
7 | O=C(Cc1ccc(-c2ccc(OCCN3CCOCC3)cc2)cn1)NCc1ccccc1 [KX2-391] |  |  | 0.91 |  |  |  |  | Sensitive | 0.86 |  | 
8 | C=CCn1c(=O)c2cnc(Nc3ccc(N4CCN(C)CC4)cc3)nc2n1-c1cccc(C(C)(C)O)n1 [MK-1775] | 1.00 |  | 1.02 | Resistant | 1.04 |  |  | Sensitive | 0.98 |  | 
9 | NC1(c2ccc(-c3nc4ccn5c(=O)[nH]nc5c4cc3-c3ccccc3)cc2)CCC1 [MK-2206] |  | 1.00 | 1.02 |  |  | Resistant | 1.04 | Sensitive | 0.98 |  | Mean viability in the other ECs (all ECs other than EC-m1): 1.00; Drug response associated with the EC (expression cluster EC-m1): Resistant; Mean viability in the EC (expression cluster EC-m1): 1.07
10 | O=c1cc(N2CCOCC2)oc2c(-c3cccc4c3sc3ccccc34)cccc12 [NU7441] |  |  |  |  |  | Resistant |  |  |  | Sensitive | 
11 | Cn1cc(-c2[nH]c3cc(NC(=O)[C@H](N)C4CCCCC4)cc4c3c2C=NNC4=O)cn1 [PF 477736] |  |  |  | Resistant |  | Resistant |  | Sensitive |  |  | Drug response associated with the EC (expression cluster EC-m1): Resistant
12 | Cl.NC(=O)c1cnc(N[C@@H]2CCCC[C@@H]2N)nc1Nc1cccc(-n2nccn2)c1 [PRT062607 HCl] |  |  |  | Resistant |  | Resistant |  | Sensitive |  | Sensitive | Drug response associated with the EC (expression cluster EC-i): Resistant
13 | CN1CCC(CNc2ccc3ncc(-c4cccc(OC(F)(F)F)c4)n3n2)CC1 [SGI-1776] |  |  | 1.04 |  |  |  |  | Sensitive | 1.01 |  | Mean viability in the other ECs (all ECs other than EC-m1): 1.03; Drug response associated with the EC (expression cluster EC-m1): Resistant; Mean viability in the EC (expression cluster EC-m1): 1.09
14 | CC(C)(C)c1cnc(CSc2cnc(NC(=O)C3CCNCC3)s2)o1 [SNS-032] |  | 0.73 |  |  |  | Sensitive | 0.66 |  |  |  | 
15 | COc1cc(N2CCC(N3CCN(C)CC3)CC2)ccc1Nc1ncc(Cl)c(Nc2ccccc2S(=O)(=O)C(C)C)n1 [TAE684] |  | 1.01 | 1.03 |  |  | Resistant | 1.04 | Sensitive | 0.98 |  | Mean viability in the other ECs (all ECs other than EC-m1): 1.01; Drug response associated with the EC (expression cluster EC-m1): Resistant; Mean viability in the EC (expression cluster EC-m1): 1.07
16 | COCCn1c2c([n+](Cc3cnccn3)c1C)C(=O)c1ccccc1C2=O [YM155] |  |  | 0.64 |  |  |  |  | Sensitive | 0.53 |  | 
17 | Cc1c2oc3c(C)ccc(C(=O)N[C@@H]4C(=O)N[C@H](C(C)C)C(=O)N5CCC[C@H]5C(=O)N(C)CC(=O)N(C)[C@@H](C(C)C)C(=O)O[C@@H]4C)c3nc-2c(C(=O)N[C@@H]2C(=O)N[C@H](C(C)C)C(=O)N3CCC[C@H]3C(=O)N(C)CC(=O)N(C)[C@@H](C(C)C)C(=O)O[C@@H]2C)c(N)c1=O [actinomycin D] (I: T[dV]P[Sar][NMeV] / II: T[dV]P[Sar][NMeV]; ester I:1-I:C, II:1-II:C; linker I:N-II:N via Actinocin(9to1)) |  |  | 0.27 |  |  |  |  | Resistant | 0.37 |  | 
18 | CN(C)C/C=C/C(=O)Nc1cc2c(Nc3ccc(F)c(Cl)c3)ncnc2cc1O[C@H]1CCOC1 [afatinib] | 1.08 | 1.09 |  |  | 1.03 |  | 1.02 |  |  |  | 
19 | CC[C@H]1CN2CCc3cc(OC)c(OC)cc3[C@@H]2C[C@@H]1C[C@H]1NCCc2cc(O)c(OC)cc21 [cephaeline] |  |  |  |  |  |  |  |  |  |  | Mean viability in the other ECs (all ECs other than EC-u2): 0.82; Mean viability in the EC (expression cluster EC-u2): 0.72
20 | C/C1=C\[C@@H](C)C/C=C/[C@H]2[C@@H]3O[C@]3(C)[C@@H](C)[C@H]3[C@H](Cc4c[nH]c5ccccc45)NC(=O)[C@]32C(=O)/C=C/C(=O)[C@@H]1O [chaetoglobosin A] | 1.07 |  |  | Sensitive | 0.98 |  |  |  |  |  | 
21 | C[C@H](Nc1ncnc2[nH]cnc12)c1cc2cccc(Cl)c2c(=O)n1-c1ccccc1 [duvelisib] | 0.88 | 0.87 | 0.90 | Resistant | 0.95 | Resistant | 0.94 | Sensitive | 0.85 | Sensitive | Mean viability in the other ECs (all ECs other than EC-u2): 0.89; Mean viability in the EC (expression cluster EC-u2): 0.73
22 | CO[C@H]1C[C@@H]2CC[C@@H](C)[C@@](O)(O2)C(=O)C(=O)N2CCCC[C@H]2C(=O)O[C@H]([C@H](C)C[C@@H]2CC[C@@H](OCCO)[C@H](OC)C2)CC(=O)[C@H](C)/C=C(\C)[C@@H](O)[C@@H](OC)C(=O)[C@H](C)C[C@H](C)/C=C/C=C/C=C/1C [everolimus] |  |  | 0.95 |  |  |  |  | Resistant | 0.99 |  | 
23 | CC[C@H](Nc1ncnc2nc[nH]c12)c1nc2cccc(F)c2c(=O)n1-c1ccccc1 [idelalisib] | 0.93 | 0.93 | 0.96 | Resistant | 1.02 | Resistant | 0.99 | Sensitive | 0.90 | Sensitive | Mean viability in the other ECs (all ECs other than EC-u2): 0.95; Mean viability in the EC (expression cluster EC-u2): 0.79
24 | CC1(C)CCC(c2ccc(Cl)cc2)=C(CN2CCN(c3ccc(C(=O)NS(=O)(=O)c4ccc(N[C@H](CCN5CCOCC5)CSc5ccccc5)c(S(=O)(=O)C(F)(F)F)c4)cc3)CC2)C1 [navitoclax] |  |  | 0.82 |  |  |  |  | Resistant | 0.89 |  | 
25 | C=C(C)[C@H]1Cc2c(ccc3c2O[C@@H]2COc4cc(OC)c(OC)cc4[C@@H]2C3=O)O1 [rotenone] |  | 0.77 |  |  |  | Sensitive | 0.67 |  |  | Resistant | Mean viability in the other ECs (all ECs other than EC-i): 0.77; Mean viability in the other ECs (all ECs other than EC-u2): 0.74; Drug response associated with the EC (expression cluster EC-i): Sensitive; Mean viability in the EC (expression cluster EC-i): 0.63; Mean viability in the EC (expression cluster EC-u2): 0.92
26 | CN1CCN(CCOc2cc(OC3CCOCC3)c3c(Nc4c(Cl)ccc5c4OCO5)ncnc3c2)CC1 [saracatinib] |  |  |  |  |  |  |  |  |  |  | Mean viability in the other ECs (all ECs other than EC-i): 1.07; Mean viability in the EC (expression cluster EC-i): 1.13
